In patent US20100298245A1, “Pharmaceutical Composition for the Treatment of IL-8 mediated diseases” (Revotar Biopharmaceuticals AG, priority 2007, published 2010):

System: Interleukin 8 (IL-8)
Experiment: Human clinical trial in COPD patients: IL-8 level in induced sputum supernatant (enzyme immunoassay)
Format: in vivo
Procedure: A human clinical trial (trial) was conducted to investigate effects of the disodium salt of compound of formula (I) (1,6-Bis [3-(3-carboxymethylphenyl)-4-(2-α-D-mannopyranosyloxy)-phenyl] hexan) on patients with chronic obstructive pulmonary disease (COPD). The trial was carried out according to known methods and according to the “good clinical practices” (GCP), applicable regulatory requirements, and was based on written approval of the Independent Ethics Committee (IEC). Patients were enrolled in the trial based on inclusion and exclusion criteria known.
Patients were treated by inhalation of the disodium salt of the compound of formula (I) for 10 days. The unit dose strength for nebulization was 70 mg in 4 ml of 0.9% NaCl twice a day (bid). To investigate laboratory parameters the procedure of induced sputum (IS) was used to harvest cells and sputum supernatant for further analysis.
To investigate levels of Interleukin 8 (IL-8) in the sputum supernatant, sputum was frozen after collection. Once, all samples were collected, levels of IL-8 were analyzed by using a commercial available enzyme immunoassay for the in vitro quantification of human IL-8 in biological fluids. IL-8 sample concentrations were determined employing calibration curves.

O=C(O)Cc1cccc(-c2cc(CCCCCCc3ccc(O[C@H]4O[C@H](CO)[C@@H](O)[C@H](O)[C@@H]4O)c(-c4cccc(CC(=O)O)c4)c3)ccc2O[C@H]2O[C@H](CO)[C@@H](O)[C@H](O)[C@@H]2O)c1 [compound of formula (I), 1,6-Bis [3-(3-carboxymethylphenyl)-4-(2-α-D-mannopyranosyloxy)-phenyl] hexane]
median value of levels of IL8 in sputum supernatant after treatment (COPD patients, induced sputum supernatant, after inhalation of disodium salt 70 mg in 4 ml 0.9% NaCl bid for 10 days, Mann-Whitney Rank Sum Test p=0.031 vs before): 4985 pg/mL | median value of levels of IL8 in sputum supernatant before treatment (COPD patients, induced sputum supernatant, baseline before inhalation treatment): 15419 pg/mL | change of the IL-8 medians (after vs before treatment, inhalation 70 mg bid for 10 days, statistically significant (p=0.031) and clinically relevant): −68%
